≈ marks a conversion by molar mass, not a printed value. Where a SMILES comes first, the peptide text is derived from it. Where no end group is shown, it is not given here.
Assays:
human red blood cells = assay type: cell-based; settings: red cells of human, 24 h
Description: Tissue expression of devil cathelicidin prepropeptides was determined by real-time PCR on a range of secretory, immune, reproductive, gastrointestinal and respiratory tissues, as well as BLAST searches of the milk transcriptome. Opportunistic tissue samples for real-time PCR were collected from Taronga Zoo (Sydney) from devils which were subject to euthanasia due to old age and advanced disease. […] Ltd. and their antimicrobial activity against bacterial and fungal pathogens determined by broth microdilution susceptibility assay according to clinical laboratory standards institute guidelines. Antimicrobial activity was expressed as minimum inhibitory concentration (MIC). Cytotoxicity was assessed in the human cell line A549 and haemolytic activity determined against human blood. Statistical significance of peptide effect on cell survival in comparison to the untreated control was calculated using a one sample t-test. Pouch microbiome analysis was performed on swabs from the pouch of lactating and non-lactating devils to detect changes in microbe populations. Pouch swab collection was carried out in accordance with the Save the Tasmanian Devil Program and was approved by the Animal Ethics Committee of the University of Sydney (permit number 681). page 3: […] Two antibiotics, ampicillin and tetracycline, were included as a positive control for bacteria, and the […] A well containing cells and media only was used as a “no drug” control to ensure that cultures grew normally. Bacteria were subcultured on Mueller Hinton agar (MHA) or Sheep blood agar (BA) for 24 hours at 35 °C for Staphylococcus spp., Pseudomonas spp., Enterococcus spp. and E.coli, with 5% CO2 for Streptococcus spp., K.pneumoniae, P.multocida, […] Similarly, fungi were subcultured on Sabouraud agar (SAB) at 35 °C for 24 hours prior to the test. Colonies were resuspended in saline and the OD530 measured with a McFarland reader. If necessary the suspension was diluted to 0.45-0.55 McFarland units with saline. […] Assays Antimicrobial activity was expressed as minimum inhibitory concentration (MIC), which was defined as the lowest concentration of cathelicidin preventing visible growth, relative to the negative control. Colonies which grew on agar plates were also counted. Cytotoxicity Cytotoxicity was assessed in the human A549 cell line maintained in Dulbecco’s Modification of Eagle’s Medium (DMEM) supplemented with 10% foetal bovine serum (FBS), 2mM L -glutamine, 50units/mL penicillin and 50μg/mL streptomycin. […] Following incubation for a further 24 hours, cell viability was determined using alamar blue (Invitrogen) which was added to each well. […]

E. coli ATCC 25922 = test: microbe, parasite or virus in culture; assay type: cell-based, Escherichia coli; settings: Escherichia coli, ATCC25922; broth microdilution (CLSI), 64 to 0.125 μg/mL, 24 h at 35 °C, lowest concentration preventing visible growth; ATCC strain; read-out: MIC
Description: (§1) Tissue expression of devil cathelicidin prepropeptides was determined by real-time PCR on a range of secretory, immune, reproductive, gastrointestinal and respiratory tissues, as well as BLAST searches of the milk transcriptome. Opportunistic tissue samples for real-time PCR were collected from Taronga Zoo (Sydney) from devils which were subject to euthanasia due to old age and advanced disease. The mature peptides of all six devil cathelicidins were synthesised by ChinaPeptides Co. Ltd. and their antimicrobial activity against bacterial and fungal pathogens determined by broth microdilution susceptibility assay according to clinical laboratory standards institute guidelines. Antimicrobial activity was expressed as minimum inhibitory concentration (MIC). Cytotoxicity was assessed in the human cell line A549 and haemolytic activity determined against human blood. Statistical significance of peptide effect on cell survival in comparison to the untreated control was calculated using a one sample t-test. Pouch microbiome analysis was performed on swabs from the pouch of lactating and non-lactating devils to detect changes in microbe populations. Pouch swab collection was carried out in accordance with the Save the Tasmanian Devil Program and was approved by the Animal Ethics Committee of the University of Sydney (permit number 681). […]
(§2) base (YNB) for fungi, from a concentration of 64μg/mL to 0.125μg/mL in a final volume of 100 μL .
(§3) Two antibiotics, ampicillin and tetracycline, were included as a positive control for bacteria, and the antifungal drug fluconazole for fungi. A well containing cells and media only was used as a “no drug” control to ensure that cultures grew normally. Bacteria were subcultured on Mueller Hinton agar (MHA) or Sheep blood agar (BA) for 24 hours at 35 °C for Staphylococcus spp., Pseudomonas spp., Enterococcus spp. and E.coli, with 5% CO2 for Streptococcus spp., K.pneumoniae, P.multocida, L.monocytogenes and N.asteroides. Similarly, fungi were subcultured on Sabouraud agar (SAB) at 35 °C for 24 hours prior to the test. Colonies were resuspended in saline and the OD530 measured with a McFarland reader. If necessary the suspension was diluted to 0.45-0.55 McFarland units with saline. […] Assays Antimicrobial activity was expressed as minimum inhibitory concentration (MIC), which was defined as the lowest concentration of cathelicidin preventing visible growth, relative to the negative control. […]
(§4) 570nm and 620nm using the Victor 3 multilabel plate reader (PerkinElmer). […] To x i city of cathelicidins was calculated according to Invitrogen recommendations and expressed as percentage cell survival compared to the untreated growth control. […]
(§5) Haemolytic activity was assessed using 10mL of human blood collected into potassium -ED T A vacutainers (BD). […]

E. faecalis ATCC 29212 = test: microbe, parasite or virus in culture; assay type: cell-based, Enterococcus faecalis; settings: Enterococcus faecalis, ATCC29212; broth microdilution (CLSI), 64 to 0.125 μg/mL, 24 h at 35 °C; ATCC strain; read-out: MIC
Description: as §1, §2, §3, §4, §5

S. pneumoniae ATCC 49619 = test: microbe, parasite or virus in culture; assay type: cell-based; settings: Streptococcus pneumoniae, ATCC49619; broth microdilution (CLSI), 64 to 0.125 μg/mL, 24 h at 35 °C with 5% CO2; ATCC strain; read-out: MIC
Description: as §1, §2
(§6) Two antibiotics, ampicillin and tetracycline, were included as a positive control for bacteria, and the antifungal drug fluconazole for fungi. A well containing cells and media only was used as a “no drug” control to ensure that cultures grew normally. Bacteria were subcultured on Mueller Hinton agar (MHA) or Sheep blood agar (BA) for 24 hours at 35 °C for Staphylococcus spp., Pseudomonas spp., Enterococcus spp. and E.coli, with 5% CO2 for Streptococcus spp., K.pneumoniae, P.multocida, L.monocytogenes and N.asteroides. Similarly, fungi were subcultured on Sabouraud agar (SAB) at 35 °C for 24 hours prior to the test. Colonies were resuspended in saline and the OD530 measured with a McFarland reader. If necessary the suspension was diluted to 0.45-0.55 McFarland units with saline. Following a 1:150 dilution for bacteria and twostep dilution for fungi (1:50, 1:20), 100 μL of microorganisms (1x106 – 5 x10^5 cells/mL) were pipetted into wells 2-12, the first well acting as a negative control. Colony counts were performed using a 1:1000 dilution for bacteria and 1:10 for fungi spread onto MHA/BA or SAB plates respectively. The 96 well microdilution and agar plates were incubated for 24 hours at 35 °C (Escherichia coli, Staphylococcus spp., Enterococcus spp. and Pseudomonas spp.), with 5% CO2 (Streptococcus spp. Pasteurella multocida, Klebsiella pneumoniae, Listeria monocytogenes a nd Nocardia asteroids) for bacteria, and 35 °C for 48 hours (Candida spp .) or 72 hours (Cryptococcus spp.) for fungi. Assays Antimicrobial activity was expressed as minimum inhibitory concentration (MIC), which was defined as the lowest concentration of cathelicidin preventing visible growth, relative to the negative control. […]
(§7) DMEM and positive control of dimethylsulfoxide (DMSO) (1%) were also included. […]
(§8) 570nm and 620nm using the Victor 3 multilabel plate reader (PerkinElmer). The assay was performed on two separate occasions. To x i city of cathelicidins was calculated according to Invitrogen recommendations and expressed as percentage cell survival compared to the untreated growth control. A significant difference between cathelicidin treated and control cell survival was tested using a o ne sample t-test (p<0.05).
(§9) Haemolytic activity was assessed using 10mL of human blood collected into potassium -ED T A vacutainers (BD). The blood was washed three times with 30mL of calcium and magnesium -free Dulbecco’s phosphate buffered saline (DPBS) and cells were collected by centrifugation at 2000 x g […]
(§10) for 10 minutes. […]

[1] = system: C. parapsilosis ATCC 22019; test: microbe, parasite or virus in culture; assay type: cell-based; settings: Lodderomyces parapsilosis, ATCC22019; broth microdilution (CLSI), YNB, 64 to 0.125 μg/mL, 48 hours at 35 °C; ATCC strain; read-out: MIC
Description: as §1, §2, §6, §7, §8, §9, §10

S. aureus ATCC 29213 = test: microbe, parasite or virus in culture; assay type: cell-based, Staphylococcus aureus; settings: Staphylococcus aureus, ATCC29213; broth microdilution (CLSI), 64 to 0.125 μg/mL, 24 h at 35 °C; ATCC strain; read-out: MIC
Description: as §1, §2, §3, §4, §5

P. aeruginosa ATCC 27853 = test: microbe, parasite or virus in culture; assay type: cell-based, Pseudomonas aeruginosa; settings: Pseudomonas aeruginosa, ATCC27853; broth microdilution (CLSI), 64 to 0.125 μg/mL, 24 h at 35 °C; ATCC strain; read-out: MIC
Description: as §1, §2, §3, §4, §5

[2] = system: 25 bacterial and 6 fungal strains; assay type: cell-based; settings: against the bacteria and fungi tested (25 bacterial and 6 fungal strains of Table 2), broth microdilution (CLSI)
From the text: To assess the antimicrobial activity of devil cathelicidins, we tested synthesized mature peptides on 25 bacterial and 6 fungal strains (Table 2). As there were no Tasmanian devil specific isolates available, human and veterinary strains were used. The antimicrobial activity of Tasmanian devil cathelicidin mature peptides Saha-CATH1 to 6 against bacteria and fungi is summarised in Table 2. […] As such, these values are not included in Table 2. Saha-CATH3 had highly specific activity, as it was unable to kill any bacteria, but killed Cryptococcus neoformans. […]
Tissue expression of devil cathelicidin prepropeptides was determined by real-time PCR on a range of secretory, immune, reproductive, gastrointestinal and respiratory tissues, as well as BLAST searches of the milk transcriptome. […] The mature peptides of all six devil cathelicidins were synthesised by ChinaPeptides Co. Ltd. and their antimicrobial activity against bacterial and fungal pathogens determined by broth microdilution susceptibility assay according to clinical laboratory standards institute guidelines. Antimicrobial activity was expressed as minimum inhibitory concentration (MIC). Cytotoxicity was assessed in the human cell line A549 and haemolytic activity determined against human blood. Statistical significance of peptide effect on cell survival in comparison to the untreated control was calculated using a one sample t-test. […]

CC[C@H](C)[C@H](NC(=O)CN)C(=O)N[C@@H](CCCCN)C(=O)N[C@@H](Cc1c[nH]cn1)C(=O)N[C@H](C(=O)N[C@@H](CC(C)C)C(=O)N[C@@H](Cc1ccccc1)C(=O)N[C@@H](CCSC)C(=O)N[C@@H](C)C(=O)N[C@@H](CCCCN)C(=O)N[C@H](C(=O)N[C@@H](CCCCN)C(=O)N[C@@H](CC(C)C)C(=O)N1CCC[C@H]1C(=O)N[C@@H](CCCNC(=N)N)C(=O)N[C@@H](C)C(=O)N[C@H](C(=O)N[C@@H](CS)C(=O)N[C@H](C(=O)N[C@@H](C)C(=O)N[C@@H](CCC(=O)O)C(=O)N[C@H](C(=O)N[C@@H](CCCCN)C(=O)N[C@@H](CCC(=O)O)C(=O)N[C@@H](CC(N)=O)C(=O)N[C@@H](CS)C(=O)N[C@@H](CC(=O)O)C(=O)N[C@@H](CCCNC(=N)N)C(=O)N[C@@H](CCCCN)C(=O)N[C@@H](CCCCN)C(=O)O)[C@@H](C)CC)[C@@H](C)O)[C@@H](C)O)[C@@H](C)O)[C@@H](C)CC [Saha-CATH1] (H-GIKHILFMAKTKLPRATCTAEIKENCDRKK-OH; N-terminus and C-terminus assumed)
haemolysis compared with the positive control (human red blood cells): below 7%

CC1(C)S[C@@H]2[C@H](NC(=O)[C@H](N)c3ccccc3)C(=O)N2[C@H]1C(=O)O [ampicillin, reference compound]
MIC (E. coli ATCC 25922): 8 µg/mL (≈ 22.9 µM)
MIC (E. faecalis ATCC 29212): 1 µg/mL (≈ 2.86 µM)
MIC (S. pneumoniae ATCC 49619): 0.125 µg/mL (≈ 0.358 µM)

OC(Cn1cncn1)(Cn1cncn1)c1ccc(F)cc1F [fluconazole, reference compound]
MIC [1]: 2 µg/mL (≈ 6.53 µM)

CN(C)[C@@H]1C(O)=C(C(N)=O)C(=O)[C@@]2(O)C(O)=C3C(=O)c4c(O)cccc4[C@@](C)(O)[C@H]3C[C@@H]12 [tetracycline, reference compound]
MIC (S. aureus ATCC 29213): 0.125 µg/mL (≈ 0.281 µM)
MIC (P. aeruginosa ATCC 27853): 8 µg/mL (≈ 18 µM)

KREDFLDQIIRDFRNFIYQKYRRLRDEFRKLRDILSG [Saha-CATH4]
minimum inhibitory concentration (MIC) [2]: greater than 64 μg/mL
haemolysis compared with the positive control (human red blood cells): below 7%

TFKRKNGSRKNGHRPGGYSLIALGNKKVLKAPYMESI [Saha-CATH2]
minimum inhibitory concentration (MIC) [2]: greater than 64 μg/mL
haemolysis compared with the positive control (human red blood cells): below 7%

From PMC5057115, “Cathelicidins in the Tasmanian devil (Sarcophilus harrisii)” (Scientific Reports, 2016)
